For 28 compounds, IC50 results are on record in patent US20240067645A1, “HETEROCYCLIC COMPOUND AS DIACYLGLYCEROL KINASE INHIBITOR AND USE THEREOF” (LG CHEM, LTD., priority 2020, published 2024).

In this assay the target is DGKα (Homo sapiens (Human), UniProt P23743). In words: Measurement of inhibitory effect against DGKα enzyme (ADP-Glo). Type of assay: biochemical. As for the experimental part:
Experimental Example: Measurement of Inhibitory Effect Against DGKα Enzyme
First, 3×OAG (3 mM)/ATP (0.45 mM) substrate solution was prepared from 1× substrate assay buffer (40 mM MOPS (pH 7.2), 20 mM MgCl2, 1 mM DTT, 0.4 mM CaCl2), 3 mM sodium deoxycholate, 100 mM NaCl, 0.1 mg/mL BSA, 0.12% NP-40), and vortexed thoroughly for 3 minutes to induce detergent-lipid micelle formation. Then, 3×DGKα (7.5 nM) enzyme solution was prepared from 2× enzyme assay buffer (80 mM MOPS (pH 7.2), 2 mM DTT, 200 mM NaCl, 0.2 mg/mL BSA) and vortexed for a short time.
After preparing the above two solutions, a half-area opaque 96-well assay plate was prepared, and 10 μL of 3× diluted compound solution (30 μM to 0 μM) was transferred to each well. Next, 10 μL of 3×DGK enzyme solution was transferred to the same plate, mixed by pipetting, and then 10 μL of 3×OAG/ATP substrate solution was added to the assay plate and mixed well. The plate was incubated at room temperature for 20 minutes for the enzyme reaction. Next, 15 μL of ADP-Glo reagent was added to each well and mixed by pipetting, followed by incubating the plate at room temperature for 40 minutes to deplete the remaining ATPs. After this step, 30 μL of kinase detection reagent was added and mixed, and the plate was incubated at room temperature for an additional 20 minutes and luminescence was measured by Envision to calculate the IC50 value of each compound.
The measurement results are represented in Table 1 (+: IC50>5 μM, ++: 5 μM>IC50>300 nM, +++: IC50<300 nM).

Setting [1] is: DGKα enzyme, ADP-Glo luminescence, OAG/ATP substrate, 20 min room temperature, read-out: IC50.

SMILES strings stand for the structures. Like-named read-outs stand apart in the source and are kept apart here.

Sequence of DGKα (P23743 whole entry, species assumed): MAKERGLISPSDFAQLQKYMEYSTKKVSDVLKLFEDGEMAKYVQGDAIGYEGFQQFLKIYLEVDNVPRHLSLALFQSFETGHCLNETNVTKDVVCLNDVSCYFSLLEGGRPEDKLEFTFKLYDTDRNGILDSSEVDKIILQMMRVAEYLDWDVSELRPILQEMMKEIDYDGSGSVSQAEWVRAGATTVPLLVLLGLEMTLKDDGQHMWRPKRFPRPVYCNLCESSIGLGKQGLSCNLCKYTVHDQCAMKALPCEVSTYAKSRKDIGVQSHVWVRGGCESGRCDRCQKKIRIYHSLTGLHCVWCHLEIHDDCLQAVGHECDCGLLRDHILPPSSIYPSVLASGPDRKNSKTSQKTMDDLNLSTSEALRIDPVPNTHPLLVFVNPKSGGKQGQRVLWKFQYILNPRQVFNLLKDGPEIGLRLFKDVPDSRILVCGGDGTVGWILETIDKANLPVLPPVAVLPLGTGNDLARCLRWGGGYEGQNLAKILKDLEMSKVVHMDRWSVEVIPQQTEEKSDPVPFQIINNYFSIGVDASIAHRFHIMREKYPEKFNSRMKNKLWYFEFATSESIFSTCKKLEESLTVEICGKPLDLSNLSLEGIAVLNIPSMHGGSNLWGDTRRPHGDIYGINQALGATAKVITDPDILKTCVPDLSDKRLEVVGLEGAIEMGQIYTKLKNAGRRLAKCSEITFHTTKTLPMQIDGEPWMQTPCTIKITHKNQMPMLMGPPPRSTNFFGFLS

Turning to `Cn1cc(-c2cnc3c(c2)n(C)c(=O)c(=O)n3C2CCN(Cc3ccc(OC(F)(F)F)cc3)CC2)cn1` [Example 36, 1-methyl-7-(1-methyl-1H-pyrazol-4-yl)-4-(1-(4-(trifluoromethoxy)benzyl)piperidin-4-yl)-1,4-dihydropyrido[2,3-b]pyrazine-2,3-dione], the IC50 under setting [1] was less than 300 nM.
As to `Cc1ccc2c(n1)n(C1CCN(Cc3cccc(F)n3)CC1)c(=O)c(=O)n2C` [Example 16, 4-(1-((6-fluoropyridin-2-yl)methyl)piperidin-4-yl)-1,6-dimethyl-1,4-dihydropyrido[2,3-b]pyrazine-2,3-dione], the half-inhibitory concentration (IC50) under setting [1] was greater than 5000 nM.
Take `Cc1ccc2c(n1)n(C1CCN(Cc3ccc4c(ccn4C)c3)CC1)c(=O)c(=O)n2C` [Example 8, 1,6-dimethyl-4-(1-((1-methyl-1H-indol-5-yl)methyl)piperidin-4-yl)-1,4-dihydropyrido[2,3-b]pyrazine-2,3-dione]: the 50% inhibitory concentration (IC50) under setting [1] lay within 300 to 5000 nM.
Consider `CCn1c(=O)c(=O)n(C2CCN(Cc3ccc(OC(F)(F)F)cc3)CC2)c2ncccc21` [Example 3, ethyl-4-(1-(4-(trifluoromethoxy)benzyl)piperidin-4-yl)-1,4-dihydropyrido[2,3-b]pyrazine-2,3-dione], for which the concentration for half-maximal inhibition (IC50) under setting [1] is 300 to 5000 nM.
Turning to `C[C@@H]1CC(n2c(=O)c(=O)n(C)c3cc(Cl)cnc32)[C@@H](C)CN1Cc1ccc(OC(F)(F)F)cc1` (stereo partly shown) [Example 49], the IC50 under setting [1] was 300 to 5000 nM.
On to `Cn1c(=O)c(=O)n(C2CCN(Cc3ccc(OC(F)(F)F)cc3)CC2)c2nc(C#N)c(C3CC3)cc21` [Example 44, 7-cyclopropyl-1-methyl-2,3-dioxo-4-(1-(4-(trifluoromethoxy)benzyl)piperidin-4-yl)-1,2,3,4-tetrahydropyrido[2,3-b]pyrazine-6-carbonitrile], for which, under setting [1], the IC50 lay within 300 to 5000 nM.
On to `CN(C)C(=O)c1cnc2c(c1)n(C)c(=O)c(=O)n2C1CCN(Cc2ccc(OC(F)(F)F)cc2)CC1` [Example 64, N,N,1-trimethyl-2,3-dioxo-4-(1-(4-(trifluoromethoxy)benzyl)piperidin-4-yl)-1,2,3,4-tetrahydropyrido[2,3-b]pyrazine-7-carboxamide], for which the concentration for half-maximal inhibition (IC50) under setting [1] is greater than 5000 nM.
`Cc1nc2c(cc1Br)n(C)c(=O)c(=O)n2C1CCN(Cc2ccc(OC(F)(F)F)cc2)CC1` [Example 51, 7-bromo-1,6-dimethyl-4-(1-(4-(trifluoromethoxy)benzyl)piperidin-4-yl)-1,4-dihydropyrido[2,3-b]pyrazine-2,3-dione]: the 50% inhibitory concentration (IC50) under setting [1] was less than 300 nM.
Consider `Cn1c(=O)c(=O)n(C2CCN(Cc3cccc4c3CCCC4)CC2)c2ncc(Cl)cc21` [Example 37, 7-chloro-1-methyl-4-(1-((5,6,7,8-tetrahydronaphthalen-1-yl)methyl)piperidin-4-yl)-1,4-dihydropyrido[2,3-b]pyrazine-2,3-dione], for which the IC50 under setting [1] is less than 300 nM.
In the case of `Cc1nc2c(cc1Cl)n(C)c(=O)c(=O)n2C1CCN(Cc2ccc(OC(F)(F)F)cc2)CC1` [Example 50, 7-chloro-1,6-dimethyl-4-(1-(4-(trifluoromethoxy)benzyl)piperidin-4-yl)-1,4-dihydropyrido[2,3-b]pyrazine-2,3-dione], under setting [1], the half-inhibitory concentration (IC50) was less than 300 nM.
On to `Cn1c(=O)c(=O)n(C2CCN(Cc3ccc(OC(F)(F)F)cc3)CC2)c2nc(Cl)ccc21` [Example 54, 6-chloro-1-methyl-4-(1-(4-(trifluoromethoxy)benzyl)piperidin-4-yl)-1,4-dihydropyrido[2,3-b]pyrazine-2,3-dione], for which the IC50 under setting [1] is less than 300 nM.
On the same count and under the same terms, with `Cc1ccc2c(n1)n(C1CCN(Cc3ccc(F)nc3)CC1)c(=O)c(=O)n2C` [Example 17, 4-(1-((6-fluoropyridin-3-yl)methyl)piperidin-4-yl)-1,6-dimethyl-1,4-dihydropyrido[2,3-b]pyrazine-2,3-dione] the figure was 300 to 5000 nM; with `Cn1c(=O)c(=O)n(C2CCN(Cc3ccc4c(c3)OCCO4)CC2)c2ncc(Cl)cc21` [Example 46, 7-chloro-4-(1-((2,3-dihydrobenzo[b][1,4]dioxin-6-yl)methyl)piperidin-4-yl)-1-methyl-1,4-dihydropyrido[2,3-b]pyrazine-2,3-dione], 300 to 5000 nM.
Still for that read-out and setting: as for `Cn1c(=O)c(=O)n(C2CCN(Cc3ccc(OC(F)(F)F)cc3)CC2)c2ncc(F)cc21` [Example 59, 7-fluoro-1-methyl-4-(1-(4-(trifluoromethoxy)benzyl)piperidin-4-yl)-1,4-dihydropyrido[2,3-b]pyrazine-2,3-dione], the figure is 300 to 5000 nM.
Take `Cc1ccc2c(n1)n(C1CCN(Cc3ccnc4ccccc34)CC1)c(=O)c(=O)n2C` [Example 9, 1,6-dimethyl-4-(1-(quinolin-4-ylmethyl)piperidin-4-yl)-1,4-dihydropyrido[2,3-b]pyrazine-2,3-dione]: the half-inhibitory concentration (IC50) under setting [1] is 300 to 5000 nM.
On the same count and under the same terms, as for `Cn1c(=O)c(=O)n(C2CCN(Cc3ccc(OC(F)(F)F)cc3)CC2)c2ncc(Cl)cc21` [Example 28, 7-chloro-1-methyl-4-(1-(4-(trifluoromethoxy)benzyl)piperidin-4-yl)-1,4-dihydropyrido[2,3-b]pyrazine-2,3-dione], the figure is less than 300 nM; as for `Cn1c(=O)c(=O)n(C2CCN(Cc3ccc(OC(F)(F)F)cc3)CC2)c2ncc(C(N)=O)cc21` [Example 66, 1-methyl-2,3-dioxo-4-(1-(4-(trifluoromethoxy)benzyl)piperidin-4-yl)-1,2,3,4-tetrahydropyrido[2,3-b]pyrazine-7-carboxamide], less than 300 nM.
Regarding `COc1ccc2c(n1)n(C1CCN(Cc3ccc(OC(F)(F)F)cc3)CC1)c(=O)c(=O)n2C` [Example 55, 6-methoxy-1-methyl-4-(1-(4-(trifluoromethoxy)benzyl)piperidin-4-yl)-1,4-dihydropyrido[2,3-b]pyrazine-2,3-dione], the IC50 under setting [1] was 300 to 5000 nM.
Turning to `Cc1ccc2c(n1)n(C1CCN(Cc3ccc(OC(F)(F)F)cc3)CC1)c(=O)c(=O)n2C` [Example 2, 1,6-dimethyl-4-(1-(4-(trifluoromethoxy)benzyl)piperidin-4-yl)-1,4-dihydropyrido[2,3-b]pyrazine-2,3-dione], under setting [1], the IC50 is less than 300 nM.
Take `Cc1ccc2c(n1)n(C1CCN(C(C)c3ccc4nccnc4c3)CC1)c(=O)c(=O)n2C` (stereo not shown) [Example 24, 1,6-dimethyl-4-(1-(1-(quinoxalin-6-yl)ethyl)piperidin-4-yl)-1,4-dihydropyrido[2,3-b]pyrazine-2,3-dione]: the concentration for half-maximal inhibition (IC50) under setting [1] is greater than 5000 nM.
`Cc1ccc2c(n1)n(C1CCN(Cc3ccc4ccccc4c3)CC1)c(=O)c(=O)n2C` [Example 19, 1,6-dimethyl-4-(1-(naphthalen-2-ylmethyl)piperidin-4-yl)-1,4-dihydropyrido[2,3-b]pyrazine-2,3-dione]: the IC50 under setting [1] is 300 to 5000 nM.
Take `Cn1c(=O)c(=O)n([C@H]2C[C@H]3CC[C@@H](C2)N3Cc2ccc(OC(F)(F)F)cc2)c2ncc(Cl)cc21` [Example 32, 7-chloro-1-methyl-4-((1R,3s,5S)-8-(4-(trifluoromethoxy)benzyl)-8-azabicyclo[3.2.1]octan-3-yl)-1,4-dihydropyrido[2,3-b]pyrazine-2,3-dione]: the half-inhibitory concentration (IC50) under setting [1] was less than 300 nM.
The same measure, in the same setting: as for `CC(C)n1cc(CN2CCC(n3c(=O)c(=O)n(C)c4cc(Cl)cnc43)CC2)cn1` [Example 52, 7-chloro-4-(1-((1-isopropyl-1H-pyrazol-4-yl)methyl)piperidin-4-yl)-1-methyl-1,4-dihydropyrido[2,3-b]pyrazine-2,3-dione], the figure is greater than 5000 nM.
As to `Cn1c(=O)c(=O)n(C2CCN(Cc3cccc4ccccc34)CC2)c2nc(C#N)ccc21` [Example 26, 1-methyl-4-(1-(naphthalen-1-ylmethyl)piperidin-4-yl)-2,3-dioxo-1,2,3,4-tetrahydropyrido[2,3-b]pyrazine-6-carbonitrile], the half-inhibitory concentration (IC50) under setting [1] lay in the range of 300 to 5000 nM.
Take `Cc1cnc2c(c1)n(C)c(=O)c(=O)n2C1CCN(Cc2ccc(OC(F)(F)F)cc2)CC1` [Example 61, 1,7-dimethyl-4-(1-(4-(trifluoromethoxy)benzyl)piperidin-4-yl)-1,4-dihydropyrido[2,3-b]pyrazine-2,3-dione]: under setting [1], the IC50 is less than 300 nM.
Consider `Cn1c(=O)c(=O)n([C@H]2C[C@H]3CC[C@@H](C2)N3Cc2ccc(OC(F)(F)F)cc2)c2ncc(Cl)cc21` [Example 57, 7-chloro-1-methyl-4-((1R,3r,5S)-8-(4-(trifluoromethoxy)benzyl)-8-azabicyclo[3.2.1]octan-3-yl)-1,4-dihydropyrido[2,3-b]pyrazine-2,3-dione], for which the IC50 was 300 to 5000 nM.
On to `Cn1c(=O)c(=O)n(C2CCN(Cc3ccc(OC(F)(F)F)cc3)CC2)c2ncc(C3CC3)cc21` [Example 40, 7-cyclopropyl-1-methyl-4-(1-(4-(trifluoromethoxy)benzyl)piperidin-4-yl)-1,4-dihydropyrido[2,3-b]pyrazine-2,3-dione], for which the IC50 under setting [1] was greater than 5000 nM.
For `Cc1ccc2c(n1)n(C1CCN(Cc3ccccc3Cl)CC1)c(=O)c(=O)n2C` [Example 12, 4-(1-(2-chlorobenzyl)piperidin-4-yl)-1,6-dimethyl-1,4-dihydropyrido[2,3-b]pyrazine-2,3-dione], the IC50 under setting [1] lay within 300 to 5000 nM.
